{
  "source": "patent US20190369111A1",
  "about": "“MOLECULAR KINETICS EVALUATION METHOD AND SCREENING METHOD” (Tokyo University of Science Foundation, priority 2016, published 2019)",
  "biological_target": "endogenous wild-type p53 protein (Homo sapiens, UniProt P04637)",
  "sequence (P04637 whole entry)": "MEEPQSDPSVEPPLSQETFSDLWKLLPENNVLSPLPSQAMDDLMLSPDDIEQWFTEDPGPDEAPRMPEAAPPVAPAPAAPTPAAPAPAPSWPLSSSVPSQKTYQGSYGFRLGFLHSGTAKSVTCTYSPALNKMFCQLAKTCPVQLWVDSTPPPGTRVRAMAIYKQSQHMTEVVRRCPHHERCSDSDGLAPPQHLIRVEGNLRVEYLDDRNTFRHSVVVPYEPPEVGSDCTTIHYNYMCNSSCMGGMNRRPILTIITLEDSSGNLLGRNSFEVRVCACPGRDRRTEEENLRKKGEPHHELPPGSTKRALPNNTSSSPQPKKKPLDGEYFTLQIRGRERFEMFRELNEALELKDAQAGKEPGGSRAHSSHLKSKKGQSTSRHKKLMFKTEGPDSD",
  "test": "Degradation of endogenous wild-type p53 protein in HeLa cells, Western blot analysis",
  "type": "cell-based",
  "set-up": "endogenous in cells",
  "procedure": "HeLa cells were seeded in a 24-well plate at a cell density of 4×10^4 cells/well, and then cultured under conditions of 37° C. and 5 vol % CO2 for 16 hours.\nAfter 16 hours from cell seeding, TIBC-CANDDY_MLN was added to HeLa cells as follows. […]\nAfter electrophoresis, proteins were transferred to a PVDF membrane (Immobion™-P, Millipore) under conditions of 100 V and 2 hours using a tank-type blotting device and a transfer buffer (25 mM Tris-HCl, 195 mM glycine, 0.01% SDS, 15% methanol). […] Subsequently, the membrane was treated with a chemiluminescence reagent Immobilon™ Western (Millipore), and then chemiluminescence was detected using a lumino image analyzer LAS-3000 (FUJIFILM Corporation).",
  "data": [
    {"smiles": "CC(C)C[C@H](NC(=O)CNC(=O)c1cc(Cl)ccc1Cl)C(=O)NCCCCCCC(=O)Nc1ccc(C(=O)/C=C/c2ccc(I)cc2)cc1", "note": "[TIBC-CANDDY_MLN]", "values": [
      {"measurement": "amount of endogenous wild-type p53 protein", "setting": "24 hours after addition", "value": "the amount of the endogenous wild-type p53 protein was reduced"},
      {"measurement": "amount of wild-type p53 protein when MLN2238 is added together", "setting": "both TIBC-CANDDY_MLN and MLN2238 added", "value": "the amount of the wild-type p53 protein was increased as compared with the control (DMSO)"}
    ]}
  ]
}
